Laboratory results as given in patent US11306344B2, “Spectral intensity ratio (SIR) analysis for rapid live microbial enumeration” (TACOUNT EXACT LTD., priority 2015, dated 2022).
Where two headings read alike, the source gives them in different places.

Key:
E. coli - O157 = format: cell-based, E. coli O157:H7 (EHEC)
Entrobacter aerogenes = assay: Flow-Cytometry NVP of dye-stained bacteria; format: cell-based, E. aerogenes
E. coli - #25922 = assay: Flow-Cytometry NVP of dye-stained bacteria; format: cell-based; settings: FM 1-43 staining
Enterococcus faecalis = assay: Flow-Cytometry SIR and NVP of dye-stained bacteria; format: cell-based, E. faecalis
E. coli #8739 [1] = assay: Fluorimeter (spectrofluorimetry) spectra, SIR and NVP of dye-stained bacteria; format: cell-based
Enterococcus faecium = assay: Flow-Cytometry NVP of dye-stained bacteria; format: cell-based, E. faecium
S. aureus = assay: Flow-Cytometry NVP of dye-stained bacteria; format: cell-based
Entrobacter cloacae = assay: Flow-Cytometry NVP of dye-stained bacteria; format: cell-based, E. cloacae
Bacillus subtillis = assay: Flow-Cytometry NVP of dye-stained bacteria; format: cell-based, B. subtilis
Pseudomonas aeruginosa = assay: Flow-Cytometry NVP of dye-stained bacteria; format: cell-based, Ps. Aeruginosa
E. coli #8739 [2] = assay: Flow-Cytometry SIR and NVP of dye-stained bacteria; format: cell-based; settings: for NVP calculation / SIR calculation: 670 (14)/780 (60) nm channels
E. coli K12 (MG1655) = assay: Flow-Cytometry SIR analysis of E. coli K12 grown with ampicillin (FM 1-43 staining); format: cell-based; settings: 1 hour
Method: The disclosed method was further validated in studies using E. coli K12 (MG1655, obtained from ATCC). After 5 hours of growth in medium, E. coli were divided into three groups: (A) grown for one hour with no antibiotics, (B) grown for one hour with 700 micrograms of ampicillin, and (C) grown for one hour with 1500 micrograms of ampicillin.
The bacteria were suspended in PBS and stained with FM® 1-43 (43N-(3-Triethylammoniumpropyl)-4-(4-(Dibutylamino) Styryl) Pyridinium Dibromide) ([…] as per the methodology described earlier.
Flow-Cytometry measurements of the stained bacterial samples were performed. In order to adjust the flow-cytometry to the spectral characterization as shown in the fluorescence spectra of the FM® 1-43 (43N-(3-Triethylammoniumpropyl)-4-(4-(Dibutylamino) Styryl) Pyridinium Dibromide) stained bacteria, the […] nm excitation channel of the flow-cytometry and two fluorescence channel using 530 (30) nm and 610 (20) nm as the λ1 and λ2 for the SIR calculation were used. The results are tabulated below and depicted in FIG. 14.

**Q.** Which results are given for `CCCCN(CCCC)c1ccc(/C=C/c2cc[n+](CCC[N+](CC)(CC)CC)cc2)cc1.[Br-].[Br-]` [FM® 1-43, N-(3-Triethylammoniumpropyl)-4-(4-(Dibutylamino) Styryl) Pyridinium Dibromide]?
**A.** NVP values (E. coli - O157): ~10; NVP values (E. coli - O157; FM 1-43 staining, Heated): ~10; NVP values (Entrobacter aerogenes; FM 1-43 staining, Chlorine): 12; NVP values (Entrobacter aerogenes; FM 1-43 staining, Heated): 8; NVP values (Entrobacter aerogenes; FM 1-43 staining, UV-MP): 4.5; NVP values (E. coli - #25922; Chlorine): 9; NVP values (E. coli - #25922; Heated): 7; NVP values (E. coli - #25922; UV-MP): 5; NVP (Enterococcus faecalis; 530(30)/610(20), Chlorine): 2; NVP (Enterococcus faecalis; 530(30)/610(20), Heated): 1.6; NVP (Enterococcus faecalis; 530(30)/610(20), UV-MP): 1.1; SIR: 530(30)/610(20) (Enterococcus faecalis; Chlorine): 13; NVP values (Enterococcus faecalis; FM 1-43 staining, Chlorine): 2; NVP values (Enterococcus faecalis; FM 1-43 staining, Heated): 1.6; NVP values (Enterococcus faecalis; FM 1-43 staining, UV-MP): 1.1; SIR: 530(30)/610(20) (Enterococcus faecalis; Heated): 10.3; SIR: 530(30)/610(20) (Enterococcus faecalis; Live): 6.5; SIR: 530(30)/610(20) (Enterococcus faecalis; UV-MP): 7.1; Non-Viability Parameter (NVP) (E. coli #8739 [1]; 85°, 15 min): ~5; SIR (I610/I530) (E. coli #8739 [1]; 85°, 15 min): ~7; Non-Viability Parameter (NVP) (E. coli #8739 [1]; Chlorine 0.05%): ~5; SIR (I610/I530) (E. coli #8739 [1]; Chlorine 0.05%): ~8; Non-Viability Parameter (NVP) (E. coli #8739 [1]; Ethanol 70%): ~3; SIR (I610/I530) (E. coli #8739 [1]; Ethanol 70%): 4.4; SIR (I610/I530) (E. coli #8739 [1]; Live bacteria): ~1.5; Non-Viability Parameter (NVP) (E. coli #8739 [1]; UV-LP 30 mJ): 1; SIR (I610/I530) (E. coli #8739 [1]; UV-LP 30 mJ): 1; Non-Viability Parameter (NVP) (E. coli #8739 [1]; UV-MP 30 mJ): ~2; SIR (I610/I530) (E. coli #8739 [1]; UV-MP 30 mJ): 3.7; NVP values (Enterococcus faecium; FM 1-43 staining, Chlorine): 1.7; NVP values (Enterococcus faecium; FM 1-43 staining, Heated): 1.6; NVP values (S. aureus; FM 1-43 staining, Chlorine): 1.7; NVP values (S. aureus; FM 1-43 staining, Heated): 1.6; NVP values (S. aureus; FM 1-43 staining, UV-MP): 1.1; NVP values (Entrobacter cloacae; FM 1-43 staining, Chlorine): 10; NVP values (Entrobacter cloacae; FM 1-43 staining, Heated): 8; NVP values (Entrobacter cloacae; FM 1-43 staining, UV-MP): 5; NVP values (Bacillus subtillis; FM 1-43 staining, Chlorine): 1.5; NVP values (Bacillus subtillis; FM 1-43 staining, Heated): 1.2; NVP values (Bacillus subtillis; FM 1-43 staining, UV-MP): 1.2; NVP values (Pseudomonas aeruginosa; FM 1-43 staining, Chlorine): 5; NVP values (Pseudomonas aeruginosa; FM 1-43 staining, Heated): 4.6; NVP values (Pseudomonas aeruginosa; FM 1-43 staining, UV-MP): 3.2; Non-Viability Parameter (NVP) (E. coli #8739 [2]; 85°, 15 min): 9; SIR (610/530) Ratio (E. coli #8739 [2]; 85°, 15 min): 8.8; Non-Viability Parameter (NVP) (E. coli #8739 [2]; Chlorine 0.05%): 10; SIR (610/530) Ratio (E. coli #8739 [2]; Chlorine 0.05%): 9.6; Non-Viability Parameter (NVP) (E. coli #8739 [2]; Ethanol 70%): 7; SIR (610/530) Ratio (E. coli #8739 [2]; Ethanol 70%): 6.5; NVP values (E. coli #8739 [2]; FM 1-43 staining, Chlorine): 10; NVP values (E. coli #8739 [2]; FM 1-43 staining, Heated): 9; NVP values (E. coli #8739 [2]; FM 1-43 staining, UV-MP): 5; SIR (610/530) Ratio (E. coli #8739 [2]; Live bacteria): 0.73; Non-Viability Parameter (NVP) (E. coli #8739 [2]; UV-LP 30 mJ): 1; SIR (610/530) Ratio (E. coli #8739 [2]; UV-LP 30 mJ): 0.7; Non-Viability Parameter (NVP) (E. coli #8739 [2]; UV-MP 30 mJ): 5; SIR (610/530) Ratio (E. coli #8739 [2]; UV-MP 30 mJ): 3.5

**Q.** Which NVP values (Entrobacter aerogenes; FM 4-64 staining, Chlorine) does the source give for `CCN(CC)c1ccc(C=CC=CC=Cc2cc[n+](CCC[N+](CC)(CC)CC)cc2)cc1.[Br-].[Br-]` [FM® 4-64, N-(3-Triethylammoniumpropyl)-4-(6-(4-(Diethylamino) Phenyl) Hexatrienyl) Pyridinium Dibromide] here?
**A.** 4.5

**Q.** What about the NVP values (Entrobacter aerogenes; FM 4-64 staining, Heated) of the same compound?
**A.** 3.3

**Q.** What about the NVP values (Entrobacter aerogenes; FM 4-64 staining, UV-MP) of the same compound?
**A.** 1.7

**Q.** And the NVP (Enterococcus faecalis; 670(14)/780(60), Chlorine)?
**A.** 2.9

**Q.** What about the NVP (Enterococcus faecalis; 670(14)/780(60), Heated) of the same compound?
**A.** 3

**Q.** And the NVP (Enterococcus faecalis; 670(14)/780(60), UV-MP)?
**A.** 1.2

**Q.** And the “SIR: 670(14)/780(60)” value (Enterococcus faecalis; Chlorine)?
**A.** 19.7

**Q.** What about the NVP values (Enterococcus faecalis; FM 4-64 staining, Chlorine) of the same compound?
**A.** 2.9

**Q.** What about the NVP values (Enterococcus faecalis; FM 4-64 staining, Heated) of the same compound?
**A.** 3

**Q.** What about the NVP values (Enterococcus faecalis; FM 4-64 staining, UV-MP) of the same compound?
**A.** 1.2

**Q.** And the “SIR: 670(14)/780(60)” value (Enterococcus faecalis; Heated)?
**A.** 20

**Q.** And the “SIR: 670(14)/780(60)” value (Enterococcus faecalis; Live)?
**A.** 6.7

**Q.** What about the “SIR: 670(14)/780(60)” value (Enterococcus faecalis; UV-MP) of the same compound?
**A.** 8.1

**Q.** And the NVP values (Enterococcus faecium; FM 4-64 staining, Chlorine)?
**A.** 3

**Q.** And the NVP values (Enterococcus faecium; FM 4-64 staining, Heated)?
**A.** 3

**Q.** And the NVP values (S. aureus; FM 4-64 staining, Chlorine)?
**A.** 2.4

**Q.** And the NVP values (S. aureus; FM 4-64 staining, Heated)?
**A.** 3

**Q.** What about the NVP values (S. aureus; FM 4-64 staining, UV-MP) of the same compound?
**A.** 1.1

**Q.** And the NVP values (Entrobacter cloacae; FM 4-64 staining, Chlorine)?
**A.** 4.5

**Q.** And the NVP values (Entrobacter cloacae; FM 4-64 staining, Heated)?
**A.** 3.7

**Q.** And the NVP values (Entrobacter cloacae; FM 4-64 staining, UV-MP)?
**A.** 2.5

**Q.** What about the NVP values (Bacillus subtillis; FM 4-64 staining, Chlorine) of the same compound?
**A.** 1.5

**Q.** And the NVP values (Bacillus subtillis; FM 4-64 staining, Heated)?
**A.** 1.8

**Q.** And the NVP values (Pseudomonas aeruginosa; FM 4-64 staining, Chlorine)?
**A.** 2

**Q.** What about the NVP values (Pseudomonas aeruginosa; FM 4-64 staining, Heated) of the same compound?
**A.** 1.8

**Q.** And the NVP calculation (E. coli #8739 [2]; Chlorinated)?
**A.** 3.4

**Q.** And the SIR calculation (E. coli #8739 [2]; Chlorinated)?
**A.** 12

**Q.** And the NVP calculation (E. coli #8739 [2]; Heated (85°, 15 min))?
**A.** 4

**Q.** What about the SIR calculation (E. coli #8739 [2]; Heated (85°, 15 min)) of the same compound?
**A.** 14

**Q.** And the SIR calculation (E. coli #8739 [2]; Live)?
**A.** 3.5

**Q.** And the NVP calculation (E. coli #8739 [2]; UV-MP)?
**A.** 3.7

**Q.** What about the SIR calculation (E. coli #8739 [2]; UV-MP) of the same compound?
**A.** 13

**Q.** What about the NVP values (E. coli #8739 [2]; FM 4-64 staining, Chlorine) of the same compound?
**A.** 3.4

**Q.** What about the NVP values (E. coli #8739 [2]; FM 4-64 staining, Heated) of the same compound?
**A.** 4

**Q.** What about the NVP values (E. coli #8739 [2]; FM 4-64 staining, UV-MP) of the same compound?
**A.** 3.7

**Q.** How did the “% from population” value (E. coli K12 (MG1655); 700 μg ampicillin, DEAD gate) turn out when `CC1(C)S[C@@H]2[C@H](NC(=O)[C@H](N)c3ccccc3)C(=O)N2[C@H]1C(=O)O` [ampicillin] was run?
**A.** 15%

**Q.** What about the SIR (E. coli K12 (MG1655); 700 μg ampicillin, DEAD gate) of the same compound?
**A.** 4.4

**Q.** What about the “% from population” value (E. coli K12 (MG1655); 700 μg ampicillin, LIVE gate) of the same compound?
**A.** 83.7%

**Q.** What about the SIR (E. coli K12 (MG1655); 700 μg ampicillin, LIVE gate) of the same compound?
**A.** 1

**Q.** What about the “% from population” value (E. coli K12 (MG1655); 1500 μg ampicillin, DEAD gate) of the same compound?
**A.** 20%

**Q.** What about the SIR (E. coli K12 (MG1655); 1500 μg ampicillin, DEAD gate) of the same compound?
**A.** 5.3

**Q.** What about the “% from population” value (E. coli K12 (MG1655); 1500 μg ampicillin, LIVE gate) of the same compound?
**A.** 78%

**Q.** What about the SIR (E. coli K12 (MG1655); 1500 μg ampicillin, LIVE gate) of the same compound?
**A.** 1
